# In US20060122267A1, “Compositions and methods for attenuating mitochondria-mediated cell injury” (priority 2003, published 2006):
# Experiments:
# [1] = target: T1, 75 kDa subunit of complex I (Rattus norvegicus, UniProt Q66HF1); experiment: SUPEROSE 6 chromatography S-nitrosothiol profile with biotin switch identification of S-nitrosated peptide; assay type: biochemical; conditions: S-nitrosoglutathione-treated mitochondria
# T1 construct: Mitochondrial protein (3 mg) was extracted in 300 μL of column running buffer; from tissue; host or cells: rat heart mitochondria, SUPEROSE 6 column fraction enriched in complex I
# Description: To simplify separation of complex I, SUPEROSE™ 6 gel filtration chromatography was employed as a liquid phase high-throughput separation method (Danial, et al. (2003) Nature 424:952-6). Chemiluminescent analysis of column fractions was then used to construct an S-nitrosothiol profile. Most S-nitrosothiol concentrated in two regions of the chromatogram, eluting at ˜35% and 85% of the column bed volume.
# The fraction with most S-nitrosothiol content was enriched in complex I activity, and was then further analyzed by biotin switch assay to identify S-nitrosated peptides (i.e., which of the 46 subunits in complex I was S-nitrosated). […]
# A 25 cm×1 cm BIO-RAD® glass ECONO-COLUMN™ was used, with appropriate flow adaptor (BIO-RAD®, Hercules Calif.) and a MASTERFLEX™ peristaltic pump (Cole Parmer, Vernon Hills, Ill.). […] Fractions (200 μL) were collected, and their A280 measured to determine relative protein content. In addition, the S-nitrosothiol content and complex I activity of each fraction were analyzed as disclosed herein. […] Therefore, for data comparison the relative position of eluted column fractions was expressed as a percentage of the total column bed volume. […]
# For biotin-switch analysis, intact mitochondrial pellets (1 mg protein solubilized in extraction buffer) or chromatography column fractions were analyzed in accordance with known methods (Jaffrey & Snyder (2001) supra). […]
# rat heart mitochondria = experiment: Chemiluminescent NO analysis of total S-nitrosothiol in treated mitochondria; assay type: biochemical
# Description: At concentrations above 250 μM, secondary reactions such as free S-nitrosothiol or NO2^− formation were observed.
# Rat heart mitochondria were isolated using differential centrifugation (Tompkins, et al. (2005) Biochim. Biophys. Acta PMID: 16278076). Protein was determined by the Folin-phenol method (Lowry, et al. (1951) J. Bio. Chem. 193:265-75) against a standard curve constructed using bovine serum albumin. Mitochondrial incubations and all subsequent steps were performed in the dark. One mg of mitochondrial protein was suspended in 1 mL of mitochondrial respiration buffer (Tompkins, et al. (2005) supra) containing respiratory substrates glutamate (5 mM), malate (2.5 mM) and succinate (5 mM). […] Samples were centrifuged (5 minutes, 14,000×g), and supernatants removed. The pellets were then resuspended in 1 mL of respiration buffer, and centrifuged again. Pellets were frozen in liquid N2 for subsequent analysis. For ONOO^− treatments, 4 μL of 25 mM ONOO^− stock (100 μM final concentration) was added the cap of the reaction tube, the cap quickly closed and the tube shaken immediately. The process was then repeated twice at 30 second intervals, for a total of 3 additions. Mitochondria were then pelleted, washed, and frozen as for S-nitrosoglutathione samples. Complex I activity was assayed as the rotenone-sensitive oxidation of NADH, at 340 nm in the presence of coenzyme Q1 (Borutaite, et al. (2000) supra). Complex IV was assayed by monitoring the cyanide-sensitive first-order oxidation of reduced cytochrome c, at 550 nm according to established methods (Cleeter, et al. (1994) supra).
# Chemiluminescent analysis of S-nitrosothiol content was performed on samples originating from blue-native gels, intact mitochondria and SUPEROSE™ 6 chromatography fractions, according to known methodologies (Yang, et al. (2003) Free Radic. Res. 37:1-10). […] Each sample was run in duplicate and quantified using a standard curve created with known concentrations of NaNO2.
# [2] = system: isolated adult rat cardiomyocytes; experiment: Cardiomyocyte model of ischemia-reperfusion injury, cell viability by Trypan blue exclusion; assay type: cell-based; conditions: for protection of cardiomyocyte viability from ischemia-reperfusion injury: 1 hour ischemia, 30 minutes reoxygenation
# Description: Isolated adult rat cardiomyocytes were subjected to 1 hour ischemia (anoxic, glucose free medium, pH 6.5) followed by 30 minutes reoxygenation (labeled “HR”). Cell viability was assayed by Trypan blue exclusion. […] All data are means±SEM, N>3.
# Adult rat cardiomyocytes were prepared by collagenase perfusion according to standard methods (Dai, et al. (2001) supra), yielding ˜4×10^6 cells per heart, >80% rod-shaped and viable. Incubations were in a shaking water bath at 37° C., each utilizing 5×10^5 cells in 5 mL of the KH buffers described below. For the control, cells were incubated for 2 hours in oxygenated KH buffer (95/5 O2/CO2). For ischemia-reperfusion treatment, cells were subjected to 30 minutes in oxygenated KH buffer, 1 hour in “ischemic” KH buffer (95/5 N2/CO2, pH 6.5, no glucose), and 30 minutes in oxygenated KH buffer. For the ischemia-reperfusion injury and test compound group of cells, ischemia-reperfusion injury was carried out as described above with test compound present during the 30 minute equilibration prior to ischemia-reperfusion and absent during ischemia. […] At the end of each protocol, cell viability was assayed (Trypan blue), and mitochondrial function determined (measurement of ΔΨm with the fluorescent probe TMRE, respiration with an O2 electrode, and S-nitrosothiol content by chemiluminescence and biotin-switch.
# T1 sequence (Q66HF1 24-727, one chain of several): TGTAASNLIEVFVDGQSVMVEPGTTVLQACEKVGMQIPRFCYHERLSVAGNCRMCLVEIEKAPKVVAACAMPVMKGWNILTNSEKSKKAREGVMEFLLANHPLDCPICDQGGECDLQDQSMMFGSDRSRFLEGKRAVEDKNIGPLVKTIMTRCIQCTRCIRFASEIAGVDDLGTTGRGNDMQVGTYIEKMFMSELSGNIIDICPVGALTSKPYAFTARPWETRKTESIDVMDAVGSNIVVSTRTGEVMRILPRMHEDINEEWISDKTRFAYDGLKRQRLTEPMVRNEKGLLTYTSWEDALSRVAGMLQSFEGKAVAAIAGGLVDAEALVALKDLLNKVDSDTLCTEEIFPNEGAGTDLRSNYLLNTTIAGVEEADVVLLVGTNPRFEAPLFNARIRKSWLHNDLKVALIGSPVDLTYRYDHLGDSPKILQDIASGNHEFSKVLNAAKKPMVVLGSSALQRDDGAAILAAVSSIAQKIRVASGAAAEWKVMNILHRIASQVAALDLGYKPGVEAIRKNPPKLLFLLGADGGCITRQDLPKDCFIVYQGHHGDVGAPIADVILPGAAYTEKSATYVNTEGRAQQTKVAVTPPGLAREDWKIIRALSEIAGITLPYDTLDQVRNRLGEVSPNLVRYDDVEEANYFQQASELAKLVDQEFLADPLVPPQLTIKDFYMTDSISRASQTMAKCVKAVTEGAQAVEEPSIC
smiles,measurement,setting,value
N[C@@H](CCC(=O)N[C@@H](CSN=O)C(=O)NCC(=O)O)C(=O)O [S-nitrosoglutathione],share of total protein-bound S-nitrosothiol contained in the 75 kDa subunit of complex I,[1],~20%
same,concentration above which secondary reactions (free S-nitrosothiol or NO2- formation) were observed,rat heart mitochondria,above 250 μM
same,total S-nitrosothiol,rat heart mitochondria; 100 μM treatment,~1700 pmol/mg mitochondrial protein
same,concentration approaching saturation of total S-nitrosothiol (free plus protein-bound),rat heart mitochondria; range 10 μM to 1 mM,~300 µM
same,concentration required to achieve levels of protection comparable to 10-20 μM S-nitroso-2-mercaptopropylglycine,[2],100 μM
same,protection of cardiomyocyte viability from ischemia-reperfusion injury,[2]; 10 μM,no protection
same,protection of cardiomyocyte viability from ischemia-reperfusion injury,[2]; 100 μM,significant protection
